In brackets after ≈: the same amount, converted by molar mass.

The subject of one assay is HL-60 cells. Briefly: Apoptosis induction test. It is filed as cell-based. Here is the method:
(1) HL-60 cells were cultured at 37° C. in RPMI 1640 medium (Bio Whittaker) containing 10% of fetal bovine serum (JRH), which had been treated at 56° C. for 30 minutes, and suspended in RPMI 1640 medium at a concentration of 2.5×10^5 cells/4.5 ml.
500 μl of at 125 μM, 250 μM, 500 μM, 1 mM, 2 mM or 4 mM aqueous DGE solution was added to 4.5 ml of the suspension. The mixtures were incubated at 37° C. for 24 hours in the presence of 5% CO2.
The cultured cells were examined under an optical microscope.
Measurement of apoptotic cells using FACScan as described in Saibo Kogaku, Bessatsu (Cell Technology, Suppl.) Jikken Protocol Series: Apoptosis Jikken Protocol (Experimental Protocol Series: Experimental Protocols for Apoptosis) (Shujun-sha) pp. 129-130 and analysis of DNA fragmentation as described in Bio Manual UP Series: Saishin Apoptosis Jikken-ho (Bio Manual UP Series: Current Experimental Methods for Apoptosis) (Yodo-sha) pp. 61-63 were carried out using cells cultured for 24 or 48 hours in the same manner as that described above.
(2) A portion of the cells cultured for 24 hours as described in Example 2-(1) was stained with 0.4% Trypan Blue and examined under an optical microscope. The number of viable cells which were not stained and the number of dead cells which were stained blue were counted. The concentration of DGE that results in a viability of 50% [Viability50 (μM)] was determined to be 81.7 μM.

The test system of assay [1] is inducible NO synthase (iNOS). Put plainly: iNOS expression (RT-PCR, Western blotting). To be noted: RAW264.7 cells cultured for 4, 6 or 8 hours. The format is cell-based. As to the method: The present inventors have confirmed that the compound of formula (I), the compound of formula (II) and salts thereof inhibit the expression of iNOS. The confirmation was carried out at protein level by using Western blotting and at messenger RNA level by using RT-PCR. […] Therefore, the compound is effective in treating and preventing diseases that require inhibition of NO production for their treatment and prevention.
RNA was prepared from RAW264.7 cells cultured for 4, 6 or 8 hours under conditions similar to those described above. The amount of mRNA encoding inducible NO synthase [iNOS; Biochem. Byophys. Res. Commun., 215:148-153 (1995)] contained in the RNA was determined by the RT-PCR method.
In general terms: Immunoblotting shows a protein as a band on a membrane.

The next assay concerns α-glucosidase from yeast. Put plainly: α-Glucosidase inhibition test (yeast enzyme). To be noted: for Remaining activity: activity without test sample = 100%; for Absorbance (OD 410 nm): without DGE 0.444. The format is biochemical. As to the method:
(1) The activity of inhibiting α-glucosidase of DGE was measured by reacting p-nitrophenyl-α-D-glucopyranoside, a chromogenic substrate for α-glucosidase, with α-glucosidase from yeast and calorimetrically quatifying 4-nitrophnol released by hydrolysis. Briefly, 10 μl of α-glucosidase solution [40 mU/ml, derived from S. cerevisiae, Sigma, dissolved in 10 mM phosphate buffer (pH 7.2 at 37° C.)] and 10 μl of a solution containing a test sample dissolved in 10 mM phosphate buffer (pH 7.2 at 37° C.) were mixed. 80 μl of a 1.5 mg/ml substrate solution [Sigma, dissolved in 10 mM phosphate buffer (pH 7.2 at 37° C.) was added thereto to initiate the reaction. After reacting at 37° C. for 40 minutes, the absorbance at 410 nm was measured (Shimadzu uv2200). The remaining activity therein was calculated defining the activity without the test sample as 100%.

Assay [2] has as its system Pseudomonas aeruginosa IFO3080. Briefly: Antimicrobial activity test. To be noted: Bacterium 4, 24 hours. The format is cell-based. As to the method:
(§1) The antimicrobial activities of DGE against Escherichia coli W3110 (Bacterium 1), Salmonella typhimurium LT2 (Bacterium 2), Bacillus subtilis IFO3021 (Bacterium 3), Pseudomonas aeruginosa IFO3080 (Bacterium 4) and Streptococcus mutans GS5 (Bacterium 5) were examined as follows.
(§2) The Bacteria 1 to 4 were cultured overnight in L-broth. The cultures were diluted to a concentration of about 2×10^5 cells/180 μl with Sensitive Bouillon medium (Nissui) base on the turbidity. The Bacterium 5 was cultured overnight in Brain Heart Infusion medium. The culture was diluted to a concentration of about 2×10^5 cells/180 μl with Brain Heart Infusion medium based on the turbidity. 180 μl of each bacterial dilution was placed in each well of a 96-well microtiter plate. On the other hand, the respective bacterial dilutions were further diluted and spread onto plates of L-broth or Brain Heart Infusion medium. The plates were incubated at 37° C. overnight. The resulting colonies were counted to determine the stating viable cell numbers.
(§3) A 14.4 mg/ml DGE solution was diluted every 2-folds to prepare serial dilutions. 20 μl each of the dilutions was placed in the well in which the bacterial dilution had been placed. The cells were cultured at 37° C. for 24 hours without shaking. After cultivation, the turbidity of each culture was measured.
(§4) Furthermore, the culture from the well for which the growth of bacterial cells was not observed was spread onto plates. After the plates were incubated at 37° C. overnight, the colony number was counted to determine the viable cell number. […] The minimal growth-inhibitory concentrations and the minimal bacteriocidal concentrations of DGE for the Bacteria 1 to 5 were determined as shown in Table 2.

The subject of the next assay is Streptococcus mutans GS5. Put plainly: Antimicrobial activity test. It is filed as cell-based. The conditions noted are these: Bacterium 5, 24 hours. As to the method:
as §1, §2, §3, §4

In the next assay the test system is Escherichia coli W3110. Briefly: Antimicrobial activity test. It is filed as cell-based. To be noted: Bacterium 1, 24 hours. As to the method: as §1, §2, §3, §4
The subject of assay [3] is Bacillus subtilis IFO3021. Briefly: Antimicrobial activity test. The format is cell-based. To be noted: Bacterium 3, 24 hours. Here is the method:
as §1, §2, §3, §4

Assay [4] deals with Salmonella typhimurium LT2. Put plainly: Antimicrobial activity test. The format is cell-based. To be noted: Bacterium 2, 24 hours. Here is the method:
as §1, §2, §3, §4

With `O=C1C=CC(CO)OC1O` [DGE, L-glycero-1,5-epoxy-1αβ,6-dihydroxy-cis-hex-3-en-2-one], in the assay with HL-60 cells, the “antiproliferation activity against tumor cells due to the apoptosis-inducing activity” value is “exhibited an antiproliferation activity against tumor cells”. The DNA fragmentation result in the assay on HL-60 cells (24 or 48 hours, DGE at 50 or 100 μM) is on record as “DNA fragmentation was observed”. For the same compound, in the assay on HL-60 cells (24 or 48 hours, FACScan), the “final concentration at which apoptotic cells were observed” value is at least 50 µM. In addition, the “final concentration at which condensation of nuclei, shrinking of cells and formation of apoptotic bodies were observed” value with HL-60 cells (24 hours, optical microscope) was at least 50 µM. The IC50 with HL-60 cells (Homo sapiens, 24 hours, Trypan Blue, read-out: Viability50, concentration that results in a viability of 50%) stood at 81.7 µM; on α-glucosidase from yeast (substrate p-nitrophenyl-α-D-glucopyranoside, read-out: concentration of DGE that inhibits α-glucosidase activity by 50% (IC50)), 500 µM. Also, the “amplification of a DNA fragment from the iNOS mRNA” value in assay [1] is “no amplification of the fragment was observed”. In addition, the Remaining activity is on record as 98% with α-glucosidase from yeast (DGE added 5 μM); 90% with α-glucosidase from yeast (DGE added 50 μM); 50% with α-glucosidase from yeast (DGE added 500 μM); 26% in the assay with α-glucosidase from yeast (DGE added 1000 μM); 19% in the assay on α-glucosidase from yeast (DGE added 5000 μM). For the same compound, the “Absorbance (OD 410 nm)” value in the assay on α-glucosidase from yeast (DGE added 5 μM) came to 0.433; with α-glucosidase from yeast (DGE added 50 μM), 0.401; in the assay on α-glucosidase from yeast (DGE added 500 μM) it was 0.221; in the assay with α-glucosidase from yeast (DGE added 1000 μM), 0.114; in the assay on α-glucosidase from yeast (DGE added 5000 μM), 0.083. The Minimal bacteriocidal concentration was 720 µg/mL in assay [2]; 180 µg/mL in the assay on Streptococcus mutans GS5; 720 µg/mL in the assay with Escherichia coli W3110; 720 µg/mL in assay [3]; 720 µg/mL in assay [4]. The MIC turned out to be 360 µg/mL (≈ 2500 µM) in assay [2] (Pseudomonas aeruginosa, IFO3080, read-out: Minimal growth-inhibitory concentration); 90 µg/mL (≈ 624 µM) in the assay on Streptococcus mutans GS5 (Streptococcus mutans, GS5, read-out: Minimal growth-inhibitory concentration); 360 µg/mL (≈ 2500 µM) with Escherichia coli W3110 (Escherichia coli, W3110, read-out: Minimal growth-inhibitory concentration); 360 µg/mL (≈ 2500 µM) in assay [3] (Bacillus subtilis, IFO3021, read-out: Minimal growth-inhibitory concentration); 360 µg/mL (≈ 2500 µM) in assay [4] (Salmonella enterica, TYPHIMURIUM, read-out: Minimal growth-inhibitory concentration).
For `O=C1C=CC(CO)OC1O` [κ-DGE, D-glycero-1,5-epoxy-1αβ,6-dihydroxy-cis-hex-3-en-2-one], the “antiproliferation activity against tumor cells due to the apoptosis-inducing activity” value in the assay with HL-60 cells is listed as “exhibited a similar activity”.

The values are drawn from US6531148B1, “Therapeutic agents” (Takara Shuzo Co., Ltd., priority 1998, dated 2003).
